Measured values reported in patent US6683103B2, “Sulfonamides for treatment of endothelin-mediated disorders” (Texas Biotechnology Corporation, priority 1997, dated 2004).
Where two headings read alike, the source gives them in different places.

Legend:
[1] = molecular target: T1, human ETA receptors (Homo sapiens, UniProt P25101); experiment: Binding Test #1: inhibition of 125I-ET-1 binding to ETA receptors (TE 671 cell membranes); details: read-out: ETA
T1 construct: endogenous in cells; host or cells: TE 671 cells (ATCC HTB 139)
T1 sequence (P25101 21-427): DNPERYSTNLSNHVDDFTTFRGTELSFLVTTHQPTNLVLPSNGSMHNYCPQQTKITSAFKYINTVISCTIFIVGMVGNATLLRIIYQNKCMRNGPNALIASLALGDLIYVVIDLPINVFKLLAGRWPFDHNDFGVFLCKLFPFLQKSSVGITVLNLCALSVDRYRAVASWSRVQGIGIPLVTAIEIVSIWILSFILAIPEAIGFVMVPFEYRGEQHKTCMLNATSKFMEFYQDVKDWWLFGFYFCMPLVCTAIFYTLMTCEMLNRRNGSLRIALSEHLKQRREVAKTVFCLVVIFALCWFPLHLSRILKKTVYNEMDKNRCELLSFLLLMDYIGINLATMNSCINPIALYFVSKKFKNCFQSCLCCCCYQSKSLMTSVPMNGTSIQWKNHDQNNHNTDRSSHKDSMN
Procedure, shortened: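 Radioligand competition in triplicate: ¹²⁵I-endothelin-1 displaced by test compound (1 nM–100 μM final) from ETA-bearing TE 671 cell membranes in HEPES pH 7.4 binding buffer with NaCl, MgCl2 and bacitracin. Incubation 16–18 h at 4 °C (or at 24 °C); 80 nM ET-1 defines nonspecific binding; pellet radioactivity gives percent inhibition.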

[2] = molecular target: T2, human ETB receptor (Homo sapiens, UniProt P24530); experiment: Binding Test #2: inhibition of 125I-ET-1 binding to ETB receptors (transfected COS7 cell membranes); details: read-out: ETB
T2 construct: expressed in transfected cells; host or cells: COS7 cells
T2 sequence (P24530 27-442): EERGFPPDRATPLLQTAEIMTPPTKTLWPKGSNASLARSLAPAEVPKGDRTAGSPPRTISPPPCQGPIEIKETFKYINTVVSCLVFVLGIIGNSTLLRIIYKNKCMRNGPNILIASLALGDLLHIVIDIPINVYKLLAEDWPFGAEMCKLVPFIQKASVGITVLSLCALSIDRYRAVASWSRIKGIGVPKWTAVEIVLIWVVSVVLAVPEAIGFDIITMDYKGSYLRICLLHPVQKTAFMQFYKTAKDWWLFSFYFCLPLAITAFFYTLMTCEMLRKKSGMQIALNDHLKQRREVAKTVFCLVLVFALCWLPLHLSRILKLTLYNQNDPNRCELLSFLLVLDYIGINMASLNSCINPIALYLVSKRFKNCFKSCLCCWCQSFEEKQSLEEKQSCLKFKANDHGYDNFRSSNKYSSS
Procedure, shortened: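 Competition with 125I-ET-1 for binding to membranes from COS7 cells transfected with human ETB receptor, used at 1 μg/50 μl binding buffer. Membranes prepared in HEPES pH 7.4 with aprotinin, including a DNase/MnCl2 step at 37 °C for 30 min.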

[3] = Table 1, † incubation at 24° C.
[4] = Table 2, † incubation at 24° C.

Row | Compound | IC50 [1, 3] [nM] | IC50 [2, 3] [nM] | IC50 ([1]; Table 1, incubation at 4° C.) [nM] | IC50 ([2]; Table 1, incubation at 4° C.) [nM] | also measured
1 | Cc1ccc(Cc2cc(-c3ccc(C)cc3)sc2S(=O)(=O)Nc2onc(C)c2Br)cc1 [N-(4-bromo-3-methyl-5-isoxazolyl)-3-(4-methylbenzyl)-5-(4-tolyl)thiophene-2-sulfonamide] | 4690 | 1560 | – | – | –
2 | Cc1noc(NS(=O)(=O)c2cc3ccccc3s2)c1C [N-(3,4-dimethyl-5-isoxazolyl)benzo[b]thiophene-2-sulfonamide] | – | – | 7220 | 11100 | –
3 | Cc1noc(NS(=O)(=O)c2c(C(C)C)sc3ccccc23)c1Br [N-(4-bromo-3-methyl-5-isoxazolyl)-2-i-propylbenzo[b]thiophene-3-sulfonamide] | 30 | 10700 | 5 | 5700 | –
4 | CCc1ccc(-c2ccc(S(=O)(=O)Nc3onc(C)c3Br)s2)s1 [N-(4-bromo-3-methyl-5-isoxazolyl)-5-(5-ethylthien-2-yl)thiophene-2-sulfonamide] | 24000 | 7700 | – | – | –
5 | COc1ccsc1S(=O)(=O)Nc1onc(C)c1C [N-(3,4-dimethyl-5-isoxazolyl)-3-methoxythiophene-2-sulfonamide] | – | – | 2500 | 45500 | –
6 | N-(4-bromo-3-methyl-5-isoxazolyl)-1-[3,4-(methylenedioxy)benzyl]indole-2-sulfonamide | 5290 | 18600 | – | – | –
7 | CC(=O)OCc1c(C)cc(C)c(NC(=O)c2sccc2S(=O)(=O)Nc2onc(C)c2Cl)c1C [N-(4-chloro-3-methyl-5-isoxazolyl)-2-(3-acetoxymethyl-2,4,6-trimethylphenylaminocarbonyl)thiophene-3-sulfonamide] | 0.6 | > 100000 | – | – | –
8 | Cc1noc(NS(=O)(=O)c2cc(Br)c(Br)s2)c1Br [N-(4-Bromo-3-methyl-5-isoxazolyl)-4,5-dibromothiophene-2-sulfonamide] | – | – | 281 | 2580 | –
9 | N-(4-chloro-3-methyl-5-isoxazolyl)-2-phenylbenzo[b]thiophene sulfonamide | 932 | 46800 | – | – | –
10 | Cc1ccccc1-c1ccc(S(=O)(=O)Nc2onc(C)c2Br)s1 [N-(4-bromo-3-methyl-5-isoxazolyl)-5-(2-tolyl)thiophene-2-sulfonamide] | – | – | 432 | 313 | –
11 | Cc1noc(NS(=O)(=O)c2c(C)sc(C)c2-c2ccccc2)c1Br [N-(4-bromo-3-methyl-5-isoxazolyl)-2,5-dimethyl-4-phenylthiophene-3-sulfonamide] | – | – | 1400 | ~100000 | –
12 | Cc1noc(NS(=O)(=O)c2ccsc2C(=O)Nc2ccc(C(C)C)cc2)c1Br [N-(4-bromo-3-methyl-5-isoxazolyl)-2-[N-(4-isopropylphenyl)aminocarbonyl]thiophene-3-sulfonamide] | – | – | < 10 | 1130 | –
13 | Cc1noc(NS(=O)(=O)c2ccc(-c3ccc(C(C)C)cc3)s2)c1Br [N-(4-bromo-3-methyl-5-isoxazolyl)-5-(4′-isopropylphenyl))thiophene-2-sulfonamide] | – | – | 1600 | 300 | –
14 | Cc1ccc(-c2ccc(S(=O)(=O)Nc3onc(C)c3Br)s2)o1 [N-(4-bromo-3-methyl-5-isoxazolyl)-5-(2-methyfuranyl)thiophene-2-sulfonamide] | 32000 | 7500 | – | – | –
15 | Cc1noc(NS(=O)(=O)c2sccc2/C=C/c2ccc3c(c2)OCO3)c1Br [N-(4-bromo-3-methyl-5-isoxazolyl)-3-[3,4-(methylenedioxy)-trans-styryl]thiophene-2-sulfonamide] | 218 | 10000 | – | – | –
16 | Cc1noc(NS(=O)(=O)c2ccc(-c3cccc4ccccc34)s2)c1Br [N-(4-bromo-3-methyl-5-isoxazolyl)-5-(1-naphthyl)thiophene-2-sulfonamide] | 14000 | 1400 | – | – | –
17 | Cc1ccc(NC(=O)c2sccc2S(=O)(=O)Nc2onc(C)c2Br)cc1 [N-(4-bromo-3-methyl-5-isoxazolyl)-2-[-(4-tolulylaminocarbonyl]thiophene-3-sulfonamide] | – | – | < 10 | 1670 | –
18 | Cc1noc(NS(=O)(=O)c2ccsc2C(=O)Nc2ccc(-c3ccccc3)cc2)c1Br [N-(4-Bromo-3-methyl-5-isoxazolyl)-2-[N-(4-biphenyl)aminocarbonyl]thiophene-3-sulfonamide] | – | – | 37.6 | 912 | –
19 | Cc1noc(NS(=O)(=O)c2sccc2CC=Cc2cc3c(cc2CO)OCO3)c1Br [N-(4-bromo-3-methyl-5-isoxazolyl)-3-[2-(hydroxymethyl)-4,5-(methylenedioxy)cinnamyl]thiophene-2-sulfonamide] | 79.5 | 3240 | – | – | –
20 | Cc1c(C(F)(F)F)noc1NS(=O)(=O)c1ccc(-c2ccccc2)cc1 [N-(4-Methyl-3-trifluoromethyl-5-isoxazolyl)-4-biphenylsulfonamide] | – | – | – | – | IC50 ([1]; Table 2, incubation at 4° C.): 19000 nM; IC50 ([2]; Table 2, incubation at 4° C.): 1700 nM; IC50 [2, 4]: 5620 nM
21 | Cc1noc(NS(=O)(=O)c2cc(Br)c(Cl)s2)c1Br [4-bromo-5-chloro-N-(4-Bromo-3-methyl-5-isoxazolyl)-thiophene-2-sulfonamide] | – | – | 359 | 2670 | –
22 | CCCc1ccc(-c2ccc(S(=O)(=O)Nc3onc(C)c3Br)s2)cc1 [N-(4-bromo-3-methyl-5-isoxazolyl)-5-(4′-propylphenyl))thiophene-2-sulfonamide] | – | – | 5600 | 510 | –
23 | Cc1cc(C)c(NC(=O)c2sccc2S(=O)(=O)Nc2onc(C)c2Cl)c(C)c1CC(=O)O [N-(4-chloro-3-methyl-5-isoxazolyl)-2-(3-carboxymethyl-2,4,6-trimethylphenylaminocarbonyl)thiophene-3-sulfonamide] | 1.5 | > 100000 | – | – | –
24 | CCCCCCCCCCCCCc1c(C(F)(F)F)noc1NS(=O)(=O)c1ccc(-c2ccccc2)cc1 [N-(4-Tridecyl-3-trifluoromethyl-5-isoxazolyl)-4-biphenylsulfonamide] | – | – | – | – | IC50 ([1]; Table 2, incubation at 4° C.): 34000 ± 9000 nM; IC50 [1, 4]: 33000 nM; IC50 ([2]; Table 2, incubation at 4° C.): 990 ± 200 nM; IC50 [2, 4]: 950 nM
25 | Cc1noc(NS(=O)(=O)c2ccc(CNC(=O)c3ccc(Cl)cc3)s2)c1Br [N-(4-Bromo-3-methyl-5-isoxazolyl)-5-(4-chlorobenzamidomethyl)thiophene-2-sulfonamide] | – | – | 311 | 2570 | –
26 | CCCC#Cc1ccc(S(=O)(=O)Nc2onc(C)c2Br)s1 [N-(4-bromo-3-methyl-5-isoxazolyl)-5-(1-pentynyl)thiophene-2-sulfonamide] | 29000 | 5600 | – | – | –
27 | COc1cc(C#N)c(NC(=O)c2sccc2S(=O)(=O)Nc2onc(C)c2Cl)c(OC)c1OC [N-(4-chloro-3-methyl-5-isoxazolyl)-2-[(2,3,4-trimethoxy-6-cyano)phenylaminocarbonyl]thiophene-3-sulfonamide] | 0.169 | 12500 | – | – | –
28 | Cc1noc(NS(=O)(=O)c2ccc(Sc3ccccc3)o2)c1Br [N-(4-bromo-3-methyl-5-isoxazolyl)-5-(phenthio)furan-2-sulfonamide] | – | – | 5000 | 7000 | –
